We go through 7 compounds from US6664235B1, “Medicaments comprising sialic acid derivatives as active ingredients” (priority 1999, dated 2003).

One may read the half-life as how long it takes for the measured level to halve. A high value points to slow loss. Broadly, the IC50 is the point on the concentration scale where inhibition reaches its midpoint.

A short description of series [1]: Test of resistance to acid hydrolysis (1H NMR). The note with it: for half-life: 1.0 N D2SO4/D2O, pH 1.37.
Series [2] has as its target Clostridium perfringens sialidase (Clostridium perfringens, UniProt A0A0H2YQR1). It counts as biochemical.
Series [3] has as its system influenza virus A/Aichi/2/68 (H3N2). In kind it is binding.
Series [4] concerns influenza virus A/PR/8/34 (H1N1) hemagglutinin. In words: Hemagglutination inhibitory assay with human erythrocytes. It counts as cell-based. The following applies: lowest concentration that completely inhibited agglutination; viruses 2^4 HA units, 4° C., 1 hour.
The subject of series [5] is influenza virus A/Aichi/2/68 (H3N2) strain. In words: Inhibition of infection of influenza virus to MDCK cells (LDH release, cytopathic effect). In kind it is cell-based. The note with it: LDH released from infected cells.
Series [6] relates to sialidase of influenza virus A/duck/33/3/76 (H10N1). It counts as biochemical, avian isolate.
The subject of series [7] is sialidase of influenza virus A/swine/Italy/309/83 (H3N2). It counts as biochemical, swine isolate.
The target of series [8] is sialidase of influenza virus A/PR/8/34 (H1N1) (Influenza A virus, UniProt P03468).
The subject of series [9] is sialidase of influenza virus A/duck/849/3/80 (H4N1). It counts as biochemical, avian isolate.
In series [10] the test system is influenza virus A/Aichi/2/68 (H3N2) strain. In kind it is cell-based. The following applies: read-out: IC50, early stage of infection.
For series [11], the system named is sialidase of influenza virus A/swine/Hokkaido/2/81 (H1N1). In kind it is biochemical, swine isolate. The following applies: read-out: Inhibitory activity (IC50, μM) Neu5Ac-DSPE as substrate.
In series [12] the test system is sialidase of influenza virus A/Aichi/2/68 (H3N2). In kind it is biochemical, human isolate.
Series [13] concerns sialidase of influenza virus A/duck/47/5/76 (H7N2). In kind it is biochemical, avian isolate.
Series [14] concerns sialidase of influenza virus A/duck/862/5/80 (H12N5). In kind it is biochemical, avian isolate.
Series [15] has as its system sialidase of influenza virus A/duck/44/3/76 (H11N3). In kind it is biochemical, avian isolate.
For series [16], the system named is sialidase of influenza virus A/duck/24/5/76 (H3N2). It counts as biochemical, avian isolate.
Series [17] has as its system sialidase of influenza virus A/duck/273/8/78 (H2N2). It counts as biochemical, avian isolate.
The test system of series [18] is sialidase of influenza virus A/duck/36/4/76 (H1N1). It counts as biochemical, avian isolate. The following applies: read-out: Inhibitory activity (IC50, μM) 4-MU-Neu5Ac as substrate.
For series [19], the system named is sialidase of influenza virus A/Singapore/1/57 (H2N2). In kind it is biochemical, human isolate. The note with it: read-out: Inhibitory activity (IC50, μM) 4-MU-Neu5Ac as substrate.
Series [20] relates to sialidase of influenza virus A/duck/13/2/76 (H6N1). It counts as biochemical, avian isolate.
Series [21] relates to sialidase of influenza virus A/duck/86/1/76 (H9N2). It counts as biochemical, avian isolate.
For series [22], the system named is influenza virus A/Aichi/2/68 (H3N2) strain. It counts as cell-based. The following applies: read-out: IC50 of prevention of cytopathic effects, late stage. Background: Damage to the host cells serves as the signal in cytopathic effect assays.
Setting [23] is: read-out: Inhibitory activity (IC50, μM) 4-MU-Neu5Ac as substrate.
Where [24] appears, read: read-out: Inhibitory activity (IC50, μM) Neu5Ac-DSPE as substrate.

The structures appear in SMILES notation. Read-outs that look alike come from different tables or passages of the source. A value given as a limit tells only on which side of the number the result lay.

On to `CC(=O)NC1C(O)CC(Oc2ccc([N+](=O)[O-])cc2)(C(=O)O)OC1C(O)C(O)CO` (centres unmarked) [Compound 2], for which, in [1] (1N sulfuric acid, 50° C.), the “Hydrolysis T½ (hour) 1N sulfuric acid 50° C.” value turned out to be 0.15 h.

As to `CC(=O)NC1C(O)C(O)C(Oc2ccc([N+](=O)[O-])cc2)(C(=O)O)OC1C(O)C(O)CO` (centres unmarked) [Compound 3], the “Ki (M) NA (C. perfringens)” value in series [2] is listed as “Very weak”. In series [1], this compound showed a half-life of 23 h.

In series [1], `CC(=O)NC1C(O)C(F)C(Oc2ccc([N+](=O)[O-])cc2)(C(=O)O)OC1C(O)C(O)CO` (centres unmarked) [Compound 5] gave a half-life of 48 h.

Consider `CCCCCCCCCCCCCCCCCC(=O)CC(COC(=O)CCCCCCCCCCCCCCCCC)COP(=O)(O)OCCNCCOC1(C(=O)O)CC(O)C(NC(C)=O)C(C(O)C(O)CO)O1` (centres unmarked) [Compound 6], for which the “Binding assay (%) H3N2” value in [3] worked out at 25%. In addition, in series [4], the “HAI (M) H1N1” value is 0.001 M.

Consider `CCCCCCCCCCCCCCCCCC(=O)CC(COC(=O)CCCCCCCCCCCCCCCCC)COP(=O)(O)OCCNCCOC1(C(=O)O)OC(C(O)C(O)CO)C(NC(C)=O)C(O)C1O` (centres unmarked) [Compound 7], for which the “affinity to H3 type virus HA relative to Compound 6” value in series [3] came to 144%. In addition, the “HAI (M) H1N1” value in series [4] amounted to 0.001 M.

Regarding `CCCCCCCCCCCCCCCCCC(=O)CC(COC(=O)CCCCCCCCCCCCCCCCC)COP(=O)(O)OCCNCCOC1(C(=O)O)OC(C(O)C(O)CO)C(NC(C)=O)C(O)C1O` (centres unmarked) [Compound 8], in series [4], the “HAI (M) H1N1” value is over 0.001 M.

Regarding `CCCCCCCCCCCCCCCCCC(=O)CC(COC(=O)CCCCCCCCCCCCCCCCC)COP(=O)(O)OCCNCCOC1(C(=O)O)OC(C(O)C(O)CO)C(NC(C)=O)C(O)C1F` (centres unmarked) [Compound 9], the IC50 in series [5] came out at 5.6 µM; in [6] (setting [23]), 500 µM; in series [6] (setting [24]), 250 µM; in series [7] (setting [23]), 125 µM; in series [7] (setting [24]), 150 µM; in [8] (setting [24]) it was 31.3 µM. Further, the IC50 was found to be 125 µM in [9] (setting [23]); 125 µM in series [9] (setting [24]); 14 µM in [10]; 125 µM in series [11]; 31.3 µM in series [12] (setting [23]); 31.3 µM in [12] (setting [24]). Besides, the IC50 is 200 µM in series [13] (setting [23]); 150 µM in series [13] (setting [24]); 125 µM in series [14] (setting [23]); 100 µM in series [14] (setting [24]); 250 µM in [15] (setting [23]); 75 µM in series [15] (setting [24]). Also, the IC50 was 180 µM in series [16] (setting [23]); 100 µM in [16] (setting [24]); 150 µM in series [17] (setting [23]); 125 µM in [17] (setting [24]); 125 µM in series [18]; 15.6 µM in series [19]. The IC50 in [20] (setting [23]) was 150 µM; in series [20] (setting [24]), 180 µM; in [21] (setting [23]) it was 180 µM; in [21] (setting [24]), 125 µM; in series [22], about 40 µM. The “virus sialidase activity inhibition” value in series [8] and in series [12] was “completely inhibited” each time. In addition, the “HAI (M) H1N1” value in [4] is 0.001 M.
